Test results from patent US9456589B2, “Elasmobranch-repelling compounds and methods of use” (priority 2005, dated 2016).
Where “and” joins values, the source holds several entries; their conditions need not be identical. Equal values may be shown once. Entries after “also recorded” stand apart in the source; their conditions may differ. Read-outs that look alike come from different tables or passages of the source.

Columns and labels:
Assay type in all cases: in vivo
[1] = system: juvenile lemon and nurse sharks; experiment: Tonic immobility, Micropipette Assay, summary over species; conditions: for Micropipette Y (termination of tonic immobility), trials of trials: oral dose; for screening result: lemon and nurse sharks
Method: (§1) One bioassay used to observe and measure flight response is the tonic immobility test. Tonic immobility is a state of paralysis that typically occurs when a shark is subject to inversion of its body along the longitudinal axis. This state is called “tonic,” and the shark can remain in this state for up to 15 minutes thereby allowing researchers to observe effects of chemical repellents. The “tonic” state of the shark is first established by releasing seawater in proximity to the “tonic” shark with the same delivery instrument and at the same distance as a “test” repellent compound will be released. Some controls are released with a high flow rate (30 mL/sec) in order to establish that sharks are not awakened by a jet of fluid over their noses. Once behavioral controls are established, a compound or composition that may have a repelling effect is delivered to the shark. If the compound or composition engenders a flight response, the shark will awaken from the tonic state and rapidly attempt to flee the delivered repellent. Using this tonic immobility bioassay researches can quantify the strength of a repellent effect.
A fourth method of delivery was called the “Micropipette Assay” method of delivery. In this method, a very small dose (fraction of a mL) of a test substance was delivered directly into a shark's mouth. […] A response, such as a cough or other notable action of the shark, was usually noted when effective gustatory repellents were delivered directly into a shark's mouth while in tonic immobility.
The Micropipette Assay method has not proven to be a particularly effective method of assaying for a flight response in elasmobranchs. The Micropipette Assay method is, nevertheless, an excellent method for specifying that a gustatory response has occurred. It is effective for specifying a gustatory response because the micropipette delivery method allows direct delivery of an entire bolus of test substance into the mouth of the shark being tested.
An oral dose of no more than 400 microliters was then delivered by micropipette into the mouth of a juvenile nurse shark. Tonic immobility was terminated. For each derivative of butyric acid and each naturally occurring acid listed in Table 9, a first micropipette assay was performed on a juvenile lemon shark with no more than 100 microliters of test acid in an oral dose. A second micropipette assay was then performed on a juvenile nurse shark with no more than 400 microliters of test acid in an oral dose. In each test, tonic immobility was terminated.
In a first set of studies on the effectiveness of carboxylic acids as elasmobranch repellents, each tested substance was subjected to the following protocol. […] An oral dose of no more than 400 microliters was then delivered by micropipette into the mouth of a juvenile nurse shark. Tonic immobility was terminated. […] The data evidences the gustatory repelling activity of carboxylic acids.

sharks (species pooled) = experiment: Tonic immobility, total of delivery methods not including Micropipette assays; conditions: species and delivery methods pooled
Method: as §1
Table 1, which summarizes the data in Tables 14 and 15, evidences the gustatory repellent characteristics of methylbutanals. In 35 of 36 assays (combining columns “Y” and “R” under the column labeled “Total (Not including Micropipette Assays)” to arrive at a 97% effectiveness rate), including assays on lemon, nurse, tiger and blacktip sharks, the gustatory repellent activity of 3-methylbutanal was established. In 81% of assays, tonic immobility was fully terminated. […] In only a single assay did a shark not respond to treatment with 3-methylbutanal.

[2] = system: sharks (lemon, nurse, blacknose, blacktip pooled); experiment: Tonic immobility, Syringe Assay, summary over species
Method: as §1
A second delivery method called the “Syringe Assay” method delivered a dose of 60 mL or more of a test chemical repellent from at least one foot, and up to as many as five feet, from a shark. The distance of delivery was determined based on the strength of the water current in the direction of the shark. Time from delivery of the test substance until response was observed, measured and recorded. The “Syringe” method allows a researcher to observe how a diffusing and diluting cloud of test chemical repellent affects the shark's behavior when the shark encounters the delivered cloud of test substance. The “Syringe” method requires relatively large doses because of the diffusion of the cloud over time and distance. Time from delivery to response is related to the size of the bolus delivered from the syringe, distance of the shark from the syringe and water current.
In the Syringe assay about 60 mL or more of valeraldehyde was delivered from one to as many as five feet from the shark depending on the water current. […] Time from delivery to response was related to the size of the bolus delivered from the syringe, distance of the shark from the syringe and water current.

[3] = system: sharks (lemon, nurse, tiger pooled); experiment: Tonic immobility, Hd Syringe Assay, summary over species; conditions: for Hd-Syringe Y (termination of tonic immobility), trials of trials: species pooled; for lowest volume of repellent that terminated tonic immobility: Hd Syringe, lemon and nurse sharks
Method: as §1
In Hd-Syringe Assays, the 3-methylbutanal was delivered to the shark's mouth and nares using a 3 mL hypodermic syringe fitted with a 22 gauge needle. The needle was held within 3 inches of the shark's mouth and the test repellent was slowly released from the syringe with a very fine plume in the water column. Any response was denoted. If a response occurred during a measurable time after delivery of the test chemical, the time between delivery and response was noted. If a response occurred immediately or the response occurred before a measurable time could be established, no time to response was noted.

[4] = system: sharks (lemon, nurse, blacktip, tiger, blacknose pooled); experiment: Tonic immobility, Syringe 3/5/10 Assay, summary over species
Method: as §1
In the tonic immobility studies disclosed herein, several different methods were employed for delivery of repelling compounds. A first method for delivery of chemical repellent in tonic immobility studies employed a “Syringe 3/5/10 Assay” method. The “Syringe 3/5/10 Assay” method is so named because a test repellent is delivered to a shark from a distance of about “3” inches with a bolus of about “5” mL with a response to the test repellent considered positive if the shark reacts with a change in behavior within less than about “10” seconds from the time of delivery.
The “3/5/10 Syringe Assay” as employed herein delivered a dose of 5-6 mL of a test chemical repellent from a syringe fixed with a needle having a gauge of about 22 from a distance at least 3 inches in front of a shark. Because the test chemical repellent was delivered at a distance from the shark's nares and mouth, a cloud of test chemical repellent was dispersed over the shark within the water column. The dispersed test repellent was subject to water current direction, dispersion and dilution. As a result, a flight response within 10 seconds was considered a positive repellency response. […] Time from delivery to response is related to the size of the bolus delivered from the syringe, distance of the shark from the syringe and water current.
In Syringe 3/5/10 Assays, 5-6 mL of 3-methylbutanal was delivered at least 3 inches in front of the shark's mouth. A cloud of the repellent dispersed over the shark within the water column. […] As noted above, because the dispersion of the chemical repellent upon delivery is affected by volume of repellent, water current, and other factors, the time between delivery and response was not correlatable with the potency of the repellent.

[5] = juvenile lemon and nurse sharks

O=C(O)/C=C/c1ccccc1 [trans-Cinnamic acid]
Micropipette Y (termination of tonic immobility), trials of trials [1, 5]: 2/2

O=C/C=C/c1ccccc1 [Cinnimaldehyde, trans-cinnimaldehyde]
Total (Not including Micropipette assays / Effective Delivery Methods) Y, trials of trials (sharks (species pooled)): 2/2
Syringe Y (termination of tonic immobility), trials of trials [2]: 2/2
Syringe Y (termination of tonic immobility), trials of trials ([2]; listed as cinnimaldehyde): two of two
Syringe Y (termination of tonic immobility), trials of trials ([2]; listed as trans-cinnimaldehyde): resulted in termination of tonic immobility

CCC(=O)C(=O)O [2-Ketobutyric Acid]
Micropipette Y (termination of tonic immobility), trials of trials [1, 5]: 2/2
screening result [1]: repellents

CCC(CC)C(=O)O [2-Ethylbutyric Acid]
Micropipette Y (termination of tonic immobility), trials of trials [1, 5]: 2/2
screening result [1]: repellents

CC(C)(C)C=O [Trimethylacetaldehyde, trimethylacetaldehyde]
Hd-Syringe Y (termination of tonic immobility), trials of trials [3]: 5/5
Total (Not including Micropipette assays / Effective Delivery Methods) N, trials of trials (sharks (species pooled)): 1/7
Total (Not including Micropipette assays / Effective Delivery Methods) Y, trials of trials (sharks (species pooled)): 6/7
Total Y, percent of trials (sharks (species pooled)): 100%
Total (Not including Micropipette assays / Effective Delivery Methods) Y, trials of trials (sharks (species pooled); listed as trimethylacetaldehyde): resulted in termination of tonic immobility
Syringe N (no response), trials of trials [2]: 1/2
Syringe Y (termination of tonic immobility), trials of trials [2]: 1/2
Micropipette assays with a behavioral response within tonic immobility [1, 5]: change of behavior during tonic immobility

CCCCC=O [Valeraldehyde, valeraldehyde]
Hd-Syringe Y (termination of tonic immobility), trials of trials [3]: 5/5
Total (Not including Micropipette assays / Effective Delivery Methods) Y, trials of trials (sharks (species pooled)): 6/6
Total Y, percent of trials (sharks (species pooled)): 100%
Total (Not including Micropipette assays / Effective Delivery Methods) Y, trials of trials (sharks (species pooled); listed as valeraldehyde): terminated tonic immobility; also recorded: six of six
Syringe Y (termination of tonic immobility), trials of trials [2]: 1/1
Micropipette assays with a gustatory response (termination or behavior change) [1, 5]: six of six; also recorded: all Micropipette assays showed a response

C=CCC(=O)O [3-Butenoic Acid (vinylacetic acid), 3-Butenoic Acid]
Micropipette Y (termination of tonic immobility), trials of trials [1, 5]: 2/2
screening result [1]: shark repelling compounds

CC/C=C/C=O [Trans-pentenal, trans-pentenal]
Hd-Syringe Y (termination of tonic immobility), trials of trials [3]: 5/5
Hd-Syringe Y (termination of tonic immobility), trials of trials ([3]; listed as Pentenal): 5/5
Total (Not including Micropipette assays / Effective Delivery Methods) Y, trials of trials (sharks (species pooled)): 5/5

CC(C)=CC=O [3-methylbutenal]
lowest volume of repellent that terminated tonic immobility [3]: 350 µL
Hd-Syringe Y (termination of tonic immobility), trials of trials [3]: All assays resulted in termination of tonic immobility and four of four and 4/4
Hd-Syringe Y (termination of tonic immobility), trials of trials ([3]; listed as 3-Methylbutenal): 4/4

CC(O)C(=O)O (stereo not shown) [lactic acid]
Syringe 3/5/10 N (no response), trials of trials [4]: no behavioral change and 1/3
Syringe 3/5/10 Y (termination of tonic immobility), trials of trials [4]: two of three and 2/3

CCC(C)C=O (stereo not shown) [2-methylbutanal]
lowest volume of repellent that terminated tonic immobility [3]: 200 µL
Hd-Syringe Y (termination of tonic immobility), trials of trials [3]: In each assay tonic immobility was terminated and five of five and 5/5
Total (Not including Micropipette assays / Effective Delivery Methods) Y, trials of trials (sharks (species pooled)): 5/5

CCCCCC=O [Capronaldehyde, capronaldehyde]
Total (Not including Micropipette assays / Effective Delivery Methods) Y, trials of trials (sharks (species pooled)): 1/1
Total Y, percent of trials (sharks (species pooled)): 100%
Syringe Y (termination of tonic immobility), trials of trials [2]: 1/1

COc1ccc(C=O)cc1 [Anisaldehyde, anisaldehyde]
Syringe Y (termination of tonic immobility), trials of trials [2]: 1/1

CCC(C)(C)C(=O)O [2,2-Dimethylbutyric Acid]
Micropipette Y (termination of tonic immobility), trials of trials [1, 5]: 2/2
screening result [1]: repellents

CC(C)C(C)C(=O)O (stereo not shown) [2,3-Dimethylbutyric Acid]
Micropipette Y (termination of tonic immobility), trials of trials [1, 5]: 2/2
screening result [1]: repellents

O=C(O)CC(O)C(=O)O (stereo not shown) [Hydroxysuccinic Acid]
Micropipette Y (termination of tonic immobility), trials of trials [1, 5]: 2/2

CCC=O [Propionaldehyde, propionaldehyde]
Total (Not including Micropipette assays / Effective Delivery Methods) Y, trials of trials (sharks (species pooled)): 4/4
Total Y, percent of trials (sharks (species pooled)): 100%
Syringe Y (termination of tonic immobility), trials of trials [2]: 4/4
Syringe Y (termination of tonic immobility), trials of trials ([2]; listed as propionaldehyde): All resulted in termination of tonic immobility

CC(=O)CCCC(=O)O [4-Acetylbutyric Acid]
Micropipette Y (termination of tonic immobility), trials of trials [1, 5]: 2/2
screening result [1]: repellents

CC(N)CC(=O)O (stereo not shown) [3-Aminobutyric Acid]
Micropipette Y (termination of tonic immobility), trials of trials [1, 5]: 2/2
screening result [1]: repellents

O=C(O)CC(CC(=O)O)C(=O)O [Tricarballylic Acid]
Micropipette Y (termination of tonic immobility), trials of trials [1, 5]: 2/2

CC=C(C)C=O [2-methylbutenal]
lowest volume of repellent that terminated tonic immobility [3]: 300 µL
Hd-Syringe Y (termination of tonic immobility), trials of trials [3]: All assays resulted in termination of tonic immobility and four of four and 4/4
Hd-Syringe Y (termination of tonic immobility), trials of trials ([3]; listed as 2-Methylbutenal): 4/4

CC(C)C=O [Isobutyraldehyde, isobutyraldehyde]
Total (Not including Micropipette assays / Effective Delivery Methods) Y, trials of trials (sharks (species pooled)): 4/4
Total Y, percent of trials (sharks (species pooled)): 100%
Syringe Y (termination of tonic immobility), trials of trials [2]: 4/4
Syringe Y (termination of tonic immobility), trials of trials ([2]; listed as isobutyraldehyde): All resulted in termination of tonic immobility
